Key:
[1] = biological target: T1, UGT2B7 (Homo sapiens, UniProt P16662); experiment: UGT2B7-catalyzed azidothymidine glucuronidation inhibition in pooled human liver microsomes; format: in vitro ADME; conditions: 100 μM azidothymidine, pooled HLM (H161)
T1 sequence (P16662 24-529): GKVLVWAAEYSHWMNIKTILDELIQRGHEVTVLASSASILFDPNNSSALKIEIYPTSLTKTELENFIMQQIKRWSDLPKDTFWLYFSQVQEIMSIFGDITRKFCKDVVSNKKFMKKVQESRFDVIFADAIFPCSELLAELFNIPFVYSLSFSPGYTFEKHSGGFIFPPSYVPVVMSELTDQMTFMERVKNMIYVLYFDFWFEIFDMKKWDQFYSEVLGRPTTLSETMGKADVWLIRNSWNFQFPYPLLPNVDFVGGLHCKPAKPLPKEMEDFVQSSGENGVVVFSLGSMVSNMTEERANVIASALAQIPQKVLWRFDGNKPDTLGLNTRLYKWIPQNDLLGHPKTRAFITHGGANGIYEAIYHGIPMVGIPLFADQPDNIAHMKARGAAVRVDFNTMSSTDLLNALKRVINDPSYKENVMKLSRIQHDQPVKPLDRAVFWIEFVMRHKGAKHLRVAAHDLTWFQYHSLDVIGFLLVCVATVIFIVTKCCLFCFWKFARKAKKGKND
Procedure: (§1) The inhibitory potency (IC50 value) of honokiol on UGT1A1-catalyzed 17β-estradiol 3-glucuronidation, UGT1A4-catalyzed trifluoperazine glucuronidation, UGT1A9-catalyzed propofol glucuronidation, and UGT2B7-catalyzed azidothymidine glucuronidation activities was determined in pooled human liver microsomes by LC-MS/MS [48]. […] Reactions were initiated by the addition of UDPGA (final concentration, 5 mM), and incubations were carried out at 37 °C in a shaking water bath for 30 min. Reactions were terminated by adding 100 μL of ice-cold methanol containing an internal standard (500 ng/mL ezetimibe for 17β-estradiol 3-glucuronide and propofol glucuronide; 30 ng/mL meloxicam for trifluoperazine glucuronide and azidothymidine glucuronide). The incubation mixtures were then centrifuged at 13,000 × g for 4 min, followed by dilution of 30 μL of the supernatant with 70 μL of water. An aliquot (5 μL) was injected onto the LC-MS/MS. All incubations were performed in triplicate and the mean values were used. Glucuronides produced from UGT isoform-specific substrates were determined by LC-MS/MS [49].
(§2) The apparent kinetic parameters for inhibitory potential (Ki values) were estimated from the fitted curves using Enzyme Kinetics Ver. 1.1 software (Systat Software Inc.).

[2] = biological target: T2, UGT1A9 (Homo sapiens, UniProt O60656); experiment: UGT1A9-catalyzed propofol glucuronidation inhibition in pooled human liver microsomes; format: in vitro ADME; conditions: pooled HLM (H161)
T2 sequence (O60656 26-530): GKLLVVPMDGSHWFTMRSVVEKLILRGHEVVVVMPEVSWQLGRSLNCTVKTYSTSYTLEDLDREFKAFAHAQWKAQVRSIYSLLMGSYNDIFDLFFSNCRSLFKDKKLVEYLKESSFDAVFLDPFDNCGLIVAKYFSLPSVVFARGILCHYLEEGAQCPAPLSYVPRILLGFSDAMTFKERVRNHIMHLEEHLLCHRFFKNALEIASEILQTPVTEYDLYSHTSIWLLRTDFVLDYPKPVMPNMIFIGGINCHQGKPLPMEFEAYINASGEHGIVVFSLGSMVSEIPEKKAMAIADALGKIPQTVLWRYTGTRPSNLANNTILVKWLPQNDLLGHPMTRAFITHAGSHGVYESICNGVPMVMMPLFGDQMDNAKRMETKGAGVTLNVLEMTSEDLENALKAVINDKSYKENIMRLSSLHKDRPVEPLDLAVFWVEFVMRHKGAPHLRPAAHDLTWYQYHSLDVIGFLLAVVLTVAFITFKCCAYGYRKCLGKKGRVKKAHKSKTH
Procedure: as §1
The incubation mixtures were then centrifuged at 13,000 × g for 4 min, after which 30 μL of the supernatant was diluted with 70 μL of water. Aliquots (5 μL) were then analyzed by LC-MS/MS.
as §2

IC50 [1]: 36400 nM | Ki ([2]; Propofol glucuronidation, 5–40 μM propofol): 300 nM | Inhibition mode ([2]; Propofol glucuronidation): competitive | IC50 at 30 min ([2]; human, pooled human liver microsomes, pH 7.4, probe propofol (10 μM), propofol glucuronidation, 10 μM propofol): 960 nM | IC50 ([2]; propofol glucuronidation, 10 μM propofol): 980 nM
SMILES: C=CCc1ccc(O)c(-c2ccc(O)c(CC=C)c2)c1 [honokiol, 2-(4-hydroxy-3-prop-2-enyl-phenyl)-4-prop-2-enyl-phenol]

— PMC6269737, “Effect of Honokiol on Cytochrome P450 and UDP-Glucuronosyltransferase Enzyme Activities in Human Liver Microsomes” (Molecules, 2013)
